Results taken from US20080031982A1 (Metaproteomics, LLC, priority 2006, published 2008).

Legend:
Experiment in all cases: KinaseProfiler Assay
GSK3β = GSK3β (Homo sapiens, UniProt P49841)
PAK5 = PAK5 (Homo sapiens, UniProt Q9P286)
IR = IR (Homo sapiens, UniProt P06213)
TrkA = TrkA (Homo sapiens, UniProt P04629)
TBK1 = target: T1, TBK1 (Homo sapiens, UniProt Q9UHD2)
T1 sequence (Q9UHD2 1-729): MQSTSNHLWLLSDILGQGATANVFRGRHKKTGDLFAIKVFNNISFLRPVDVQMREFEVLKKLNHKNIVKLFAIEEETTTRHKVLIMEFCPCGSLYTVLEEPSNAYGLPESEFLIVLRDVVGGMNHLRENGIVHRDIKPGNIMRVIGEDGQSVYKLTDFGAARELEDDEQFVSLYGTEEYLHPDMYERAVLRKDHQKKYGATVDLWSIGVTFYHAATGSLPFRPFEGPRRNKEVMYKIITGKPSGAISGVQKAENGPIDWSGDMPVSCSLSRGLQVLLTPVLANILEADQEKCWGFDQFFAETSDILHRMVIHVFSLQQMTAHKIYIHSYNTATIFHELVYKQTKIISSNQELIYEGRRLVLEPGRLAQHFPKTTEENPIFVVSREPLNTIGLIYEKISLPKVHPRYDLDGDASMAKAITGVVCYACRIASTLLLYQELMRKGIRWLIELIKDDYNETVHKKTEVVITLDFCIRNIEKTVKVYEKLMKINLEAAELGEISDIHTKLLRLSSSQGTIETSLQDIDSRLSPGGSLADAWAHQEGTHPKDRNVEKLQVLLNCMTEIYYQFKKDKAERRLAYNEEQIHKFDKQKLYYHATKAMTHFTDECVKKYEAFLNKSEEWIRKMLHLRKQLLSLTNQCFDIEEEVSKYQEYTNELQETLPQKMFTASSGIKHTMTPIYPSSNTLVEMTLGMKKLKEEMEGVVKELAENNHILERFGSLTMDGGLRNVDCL

CK1(y) = test system: CK1(y)
IKKβ = target: T2, IKKβ (Homo sapiens, UniProt O14920)
T2 sequence (O14920 1-756): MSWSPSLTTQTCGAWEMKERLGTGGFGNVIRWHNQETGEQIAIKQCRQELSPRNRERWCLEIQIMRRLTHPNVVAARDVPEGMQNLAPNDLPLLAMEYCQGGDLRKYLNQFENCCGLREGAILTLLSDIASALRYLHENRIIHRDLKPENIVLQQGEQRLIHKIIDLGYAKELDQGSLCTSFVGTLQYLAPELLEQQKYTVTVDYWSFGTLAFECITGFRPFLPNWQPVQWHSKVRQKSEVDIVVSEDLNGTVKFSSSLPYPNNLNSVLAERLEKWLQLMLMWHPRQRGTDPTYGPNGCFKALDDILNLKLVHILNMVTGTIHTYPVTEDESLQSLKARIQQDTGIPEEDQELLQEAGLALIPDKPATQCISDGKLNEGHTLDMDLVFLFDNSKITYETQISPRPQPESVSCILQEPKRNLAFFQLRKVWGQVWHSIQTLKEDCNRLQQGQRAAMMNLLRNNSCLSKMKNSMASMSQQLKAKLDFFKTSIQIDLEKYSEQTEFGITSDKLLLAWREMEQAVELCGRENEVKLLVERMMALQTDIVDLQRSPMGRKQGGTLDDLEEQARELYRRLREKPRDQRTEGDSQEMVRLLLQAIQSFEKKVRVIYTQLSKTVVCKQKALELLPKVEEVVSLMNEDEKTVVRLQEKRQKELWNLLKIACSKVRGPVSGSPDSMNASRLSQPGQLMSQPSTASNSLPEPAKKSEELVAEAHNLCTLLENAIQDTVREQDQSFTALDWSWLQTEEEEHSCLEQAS

PKBβ = PKBβ (Homo sapiens, UniProt P31751)
Sequence of PKBβ (P31751 whole entry): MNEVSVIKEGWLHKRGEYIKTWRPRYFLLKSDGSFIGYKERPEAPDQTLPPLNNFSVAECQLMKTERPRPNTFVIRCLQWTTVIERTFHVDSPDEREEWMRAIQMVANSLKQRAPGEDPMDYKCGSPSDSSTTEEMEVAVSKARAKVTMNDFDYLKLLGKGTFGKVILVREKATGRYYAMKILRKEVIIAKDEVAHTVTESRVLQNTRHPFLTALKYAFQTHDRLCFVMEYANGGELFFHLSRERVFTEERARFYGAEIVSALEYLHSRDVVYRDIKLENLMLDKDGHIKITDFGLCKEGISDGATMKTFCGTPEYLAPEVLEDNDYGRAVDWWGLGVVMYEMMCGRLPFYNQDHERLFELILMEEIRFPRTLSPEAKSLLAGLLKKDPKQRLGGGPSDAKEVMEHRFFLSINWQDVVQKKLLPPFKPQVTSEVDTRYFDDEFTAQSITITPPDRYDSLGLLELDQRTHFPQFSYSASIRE

Fes = Fes (Homo sapiens, UniProt P07332)
Sequence of Fes (P07332 whole entry): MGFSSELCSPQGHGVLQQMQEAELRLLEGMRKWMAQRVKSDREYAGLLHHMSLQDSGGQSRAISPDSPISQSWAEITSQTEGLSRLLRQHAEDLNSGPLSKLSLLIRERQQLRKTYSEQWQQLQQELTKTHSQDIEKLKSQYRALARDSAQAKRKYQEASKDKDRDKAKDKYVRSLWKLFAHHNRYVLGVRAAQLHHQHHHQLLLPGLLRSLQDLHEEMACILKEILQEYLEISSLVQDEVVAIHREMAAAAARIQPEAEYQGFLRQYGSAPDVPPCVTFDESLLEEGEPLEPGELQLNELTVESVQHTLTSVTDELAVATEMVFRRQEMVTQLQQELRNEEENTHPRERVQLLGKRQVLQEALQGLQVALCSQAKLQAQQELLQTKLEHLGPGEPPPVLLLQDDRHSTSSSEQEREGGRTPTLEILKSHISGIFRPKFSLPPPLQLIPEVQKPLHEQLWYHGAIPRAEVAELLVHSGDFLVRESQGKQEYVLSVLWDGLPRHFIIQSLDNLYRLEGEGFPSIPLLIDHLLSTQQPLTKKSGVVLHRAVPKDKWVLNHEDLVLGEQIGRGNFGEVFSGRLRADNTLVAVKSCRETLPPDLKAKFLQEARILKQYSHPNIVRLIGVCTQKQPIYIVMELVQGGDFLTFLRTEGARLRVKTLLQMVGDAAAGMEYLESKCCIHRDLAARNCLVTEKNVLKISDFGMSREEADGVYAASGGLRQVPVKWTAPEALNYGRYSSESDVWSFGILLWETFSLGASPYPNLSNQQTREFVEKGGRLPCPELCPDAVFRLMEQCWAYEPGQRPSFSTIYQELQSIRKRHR

ErbB4 = ErbB4 (Homo sapiens, UniProt Q15303)

Sequence of GSK3β (P49841 whole entry): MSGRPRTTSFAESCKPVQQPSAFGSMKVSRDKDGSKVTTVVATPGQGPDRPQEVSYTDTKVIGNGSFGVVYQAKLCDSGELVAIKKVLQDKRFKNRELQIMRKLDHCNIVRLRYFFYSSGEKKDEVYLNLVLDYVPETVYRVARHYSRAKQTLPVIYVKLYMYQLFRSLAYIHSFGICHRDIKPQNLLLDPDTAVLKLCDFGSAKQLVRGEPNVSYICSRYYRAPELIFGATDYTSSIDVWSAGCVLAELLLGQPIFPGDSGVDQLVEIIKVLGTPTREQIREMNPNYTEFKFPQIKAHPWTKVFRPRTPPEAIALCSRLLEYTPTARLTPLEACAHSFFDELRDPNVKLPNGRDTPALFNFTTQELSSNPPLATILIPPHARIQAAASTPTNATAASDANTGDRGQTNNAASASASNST
Sequence of IR (P06213 28-1382): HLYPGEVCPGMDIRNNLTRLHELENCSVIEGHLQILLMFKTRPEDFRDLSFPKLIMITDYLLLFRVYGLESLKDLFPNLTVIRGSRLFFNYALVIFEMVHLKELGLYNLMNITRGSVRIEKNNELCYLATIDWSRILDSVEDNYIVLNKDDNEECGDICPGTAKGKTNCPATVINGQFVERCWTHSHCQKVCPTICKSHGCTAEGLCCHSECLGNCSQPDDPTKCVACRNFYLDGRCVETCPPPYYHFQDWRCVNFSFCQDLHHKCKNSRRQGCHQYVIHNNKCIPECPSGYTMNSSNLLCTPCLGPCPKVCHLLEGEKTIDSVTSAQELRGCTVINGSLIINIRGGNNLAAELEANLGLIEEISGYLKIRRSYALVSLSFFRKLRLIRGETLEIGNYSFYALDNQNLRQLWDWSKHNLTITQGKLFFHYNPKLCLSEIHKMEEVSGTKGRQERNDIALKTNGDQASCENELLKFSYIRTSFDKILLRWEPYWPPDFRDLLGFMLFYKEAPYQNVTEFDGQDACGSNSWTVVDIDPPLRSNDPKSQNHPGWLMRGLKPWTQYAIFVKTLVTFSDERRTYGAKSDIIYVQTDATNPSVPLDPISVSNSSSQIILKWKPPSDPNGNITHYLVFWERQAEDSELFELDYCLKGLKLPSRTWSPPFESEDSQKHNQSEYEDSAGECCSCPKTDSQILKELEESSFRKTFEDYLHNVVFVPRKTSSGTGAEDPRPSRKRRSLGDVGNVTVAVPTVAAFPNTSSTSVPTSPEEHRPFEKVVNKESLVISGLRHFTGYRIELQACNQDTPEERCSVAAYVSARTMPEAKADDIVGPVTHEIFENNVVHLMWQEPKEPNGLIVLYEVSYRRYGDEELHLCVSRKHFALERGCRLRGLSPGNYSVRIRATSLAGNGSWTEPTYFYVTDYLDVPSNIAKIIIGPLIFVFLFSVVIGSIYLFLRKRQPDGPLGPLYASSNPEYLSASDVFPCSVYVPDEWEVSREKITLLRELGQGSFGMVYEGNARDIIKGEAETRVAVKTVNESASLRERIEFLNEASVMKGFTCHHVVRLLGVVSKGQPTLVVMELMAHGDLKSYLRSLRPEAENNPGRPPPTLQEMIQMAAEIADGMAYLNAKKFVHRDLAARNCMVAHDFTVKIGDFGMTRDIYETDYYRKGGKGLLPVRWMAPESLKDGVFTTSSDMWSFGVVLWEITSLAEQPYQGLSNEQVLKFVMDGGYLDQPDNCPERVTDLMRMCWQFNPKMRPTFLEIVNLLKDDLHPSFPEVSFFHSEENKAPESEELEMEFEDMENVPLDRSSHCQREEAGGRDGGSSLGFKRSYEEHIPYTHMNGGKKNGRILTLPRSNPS
Sequence of PAK5 (Q9P286 whole entry): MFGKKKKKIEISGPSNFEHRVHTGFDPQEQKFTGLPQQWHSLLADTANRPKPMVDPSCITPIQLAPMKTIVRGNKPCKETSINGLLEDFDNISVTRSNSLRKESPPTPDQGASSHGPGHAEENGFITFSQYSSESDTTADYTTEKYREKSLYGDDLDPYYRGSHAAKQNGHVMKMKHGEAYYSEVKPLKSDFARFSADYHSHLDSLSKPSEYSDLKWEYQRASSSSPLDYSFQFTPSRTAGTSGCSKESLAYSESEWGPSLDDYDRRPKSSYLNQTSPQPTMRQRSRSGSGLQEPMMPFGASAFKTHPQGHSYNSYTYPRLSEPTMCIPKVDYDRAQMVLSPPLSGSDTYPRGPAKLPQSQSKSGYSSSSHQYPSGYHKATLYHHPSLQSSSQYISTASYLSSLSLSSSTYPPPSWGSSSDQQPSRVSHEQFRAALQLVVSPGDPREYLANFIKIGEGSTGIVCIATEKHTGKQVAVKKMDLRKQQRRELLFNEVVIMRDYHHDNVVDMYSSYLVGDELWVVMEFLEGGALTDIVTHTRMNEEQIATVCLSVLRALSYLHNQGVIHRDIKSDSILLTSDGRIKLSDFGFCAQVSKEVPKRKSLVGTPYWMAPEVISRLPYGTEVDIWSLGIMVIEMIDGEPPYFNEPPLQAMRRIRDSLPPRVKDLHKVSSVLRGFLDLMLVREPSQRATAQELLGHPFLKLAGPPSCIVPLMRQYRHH
Sequence of TrkA (P04629 33-796): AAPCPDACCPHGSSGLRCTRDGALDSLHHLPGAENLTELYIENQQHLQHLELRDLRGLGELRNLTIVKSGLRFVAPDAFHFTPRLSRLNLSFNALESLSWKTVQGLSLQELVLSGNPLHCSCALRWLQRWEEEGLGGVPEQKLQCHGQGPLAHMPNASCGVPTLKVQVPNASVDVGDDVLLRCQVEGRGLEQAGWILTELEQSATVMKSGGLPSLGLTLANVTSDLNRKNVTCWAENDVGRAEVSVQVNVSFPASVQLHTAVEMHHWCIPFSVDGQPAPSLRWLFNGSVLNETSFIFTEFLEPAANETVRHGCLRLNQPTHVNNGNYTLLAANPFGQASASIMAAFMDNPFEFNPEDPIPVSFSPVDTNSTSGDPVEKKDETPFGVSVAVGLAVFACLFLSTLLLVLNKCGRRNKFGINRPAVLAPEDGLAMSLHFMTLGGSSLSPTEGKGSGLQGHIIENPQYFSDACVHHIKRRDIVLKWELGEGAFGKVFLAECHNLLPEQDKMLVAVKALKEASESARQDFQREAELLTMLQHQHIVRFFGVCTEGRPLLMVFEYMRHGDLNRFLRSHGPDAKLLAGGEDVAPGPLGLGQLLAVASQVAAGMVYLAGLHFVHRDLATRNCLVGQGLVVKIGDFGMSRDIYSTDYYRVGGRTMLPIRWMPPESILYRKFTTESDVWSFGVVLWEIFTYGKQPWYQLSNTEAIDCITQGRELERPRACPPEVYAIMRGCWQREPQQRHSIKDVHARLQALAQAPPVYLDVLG

COc1cc(O)c(CC=C(C)C)c(O)c1C(=O)/C=C/c1ccc(O)cc1 [Xanthohumol, xanthohumol]
Kinase activity, % of Control (GSK3β; 1 ug/ml): 120 % of Control
Kinase activity, % of Control (GSK3β; 5 ug/ml): 99 % of Control
Kinase activity, % of Control (GSK3β; 25 ug/ml): 25 % of Control
Kinase activity, % of Control (GSK3β; 50 ug/ml): 3 % of Control
Kinase activity, % of Control (PAK5; 1 ug/ml): 106 % of Control
Kinase activity, % of Control (PAK5; 5 ug/ml): 99 % of Control
Kinase activity, % of Control (PAK5; 25 ug/ml): 42 % of Control
Kinase activity, % of Control (PAK5; 50 ug/ml): 5 % of Control
Kinase activity, % of Control (IR; 1 ug/ml): 120 % of Control
Kinase activity, % of Control (IR; 5 ug/ml): 108 % of Control
Kinase activity, % of Control (IR; 50 ug/ml): 103 % of Control
Kinase activity, % of Control (TrkA; 1 ug/ml): 36 % of Control
Kinase activity, % of Control (TrkA; 5 ug/ml): 19 % of Control
Kinase activity, % of Control (TrkA; 25 ug/ml): 8 % of Control
Kinase activity, % of Control (TrkA; 50 ug/ml): 3 % of Control
Kinase activity, % of Control (TBK1; 1 ug/ml): 104 % of Control
Kinase activity, % of Control (TBK1; 5 ug/ml): 71 % of Control
Kinase activity, % of Control (TBK1; 25 ug/ml): 45 % of Control
Kinase activity, % of Control (TBK1; 50 ug/ml): 42 % of Control
Kinase activity, % of Control (CK1(y); 1 ug/ml): 91 % of Control
Kinase activity, % of Control (CK1(y); 5 ug/ml): 63 % of Control
Kinase activity, % of Control (CK1(y); 25 ug/ml): 37 % of Control
Kinase activity, % of Control (CK1(y); 50 ug/ml): 9 % of Control
Kinase activity, % of Control (IKKβ; 1 ug/ml): 145 % of Control
Kinase activity, % of Control (IKKβ; 5 ug/ml): 118 % of Control
Kinase activity, % of Control (IKKβ; 25 ug/ml): 61 % of Control
Kinase activity, % of Control (IKKβ; 50 ug/ml): 44 % of Control
Kinase activity, % of Control (PKBβ; 1 ug/ml): 146 % of Control
Kinase activity, % of Control (PKBβ; 5 ug/ml): 102 % of Control
Kinase activity, % of Control (PKBβ; 25 ug/ml): 1 % of Control
Kinase activity, % of Control (PKBβ; 50 ug/ml): 8 % of Control
Kinase activity, % of Control (Fes; 1 ug/ml): 131 % of Control
Kinase activity, % of Control (Fes; 5 ug/ml): 106 % of Control
Kinase activity, % of Control (Fes; 25 ug/ml): 102 % of Control
Kinase activity, % of Control (Fes; 50 ug/ml): 26 % of Control
Kinase activity, % of Control (ErbB4; 1 ug/ml): 132 % of Control
Kinase activity, % of Control (ErbB4; 5 ug/ml): 85 % of Control
Kinase activity, % of Control (ErbB4; 25 ug/ml): 52 % of Control
Kinase activity, % of Control (ErbB4; 50 ug/ml): 27 % of Control
